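Compound exposure: 48 hours, 5 concentrations, 96-well plates. GI50 is the concentration that inhibits growth by half.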 Active and inactive are the calls of the source. Rule as the data show it: active = GI50 up to about 1.1 µM and inactive = higher.
Legend:
Test in all cases: NCI-60 cell line screen, 48 h
NCI-H226 = tested on: NCI-H226
A498 = tested on: A498
UACC-62 = tested on: UACC-62
786-0 = tested on: 786-0
CCRF-CEM = tested on: CCRF-CEM
OVCAR-4 = tested on: OVCAR-4
DMS-114 = tested on: DMS-114
HOP-18 = tested on: HOP-18
LXFL 529 = tested on: LXFL 529
UACC-257 = tested on: UACC-257
MOLT-4 = tested on: MOLT-4
COLO 205 = tested on: COLO 205
SNB-78 = tested on: SNB-78
HCT-116 = tested on: HCT-116
SF-268 = tested on: SF-268
OVCAR-8 = tested on: OVCAR-8
SNB-19 = tested on: SNB-19
OVCAR-3 = tested on: OVCAR-3
NCI-H460 = tested on: NCI-H460
M14 = tested on: M14
ACHN = tested on: ACHN
LOX IMVI = tested on: LOX IMVI
DLD-1 = tested on: DLD-1
Malme-3M = tested on: Malme-3M
SF-295 = tested on: SF-295
SNB-75 = tested on: SNB-75
KM-20L2 = tested on: KM-20L2
HCC 2998 = tested on: HCC 2998
EKVX = tested on: EKVX
SN12C = tested on: SN12C
KM12 = tested on: KM12
SK-MEL-2 = tested on: SK-MEL-2
SW-620 = tested on: SW-620
NCI-H522 = tested on: NCI-H522
SF-539 = tested on: SF-539
HL-60 = tested on: HL-60
RXF 393 = tested on: RXF 393
IGROV-1 = tested on: IGROV-1
RPMI-8226 = tested on: RPMI-8226
SK-OV-3 = tested on: SK-OV-3
UO-31 = tested on: UO-31
CAKI-1 = tested on: CAKI-1
HOP-62 = tested on: HOP-62
U-251 = tested on: U-251
SK-MEL-28 = tested on: SK-MEL-28
HCT-15 = tested on: HCT-15
SK-MEL-5 = tested on: SK-MEL-5
DMS-273 = tested on: DMS-273
OVCAR-5 = tested on: OVCAR-5
NCI-H23 = tested on: NCI-H23
HT-29 = tested on: HT-29
K562 = tested on: K562
A549 = tested on: A549
TK-10 = tested on: TK-10
M19-MEL = tested on: M19-MEL
HOP-92 = tested on: HOP-92
XF498 = tested on: XF498
SR = tested on: SR

## C\C=C/C=C/C=C/C(=O)O
NCI-H226
  GI50: > 100 µM (inactive)
A498
  GI50: > 100 µM (inactive)
UACC-62
  GI50: > 100 µM (inactive)
786-0
  GI50: > 100 µM (inactive)
CCRF-CEM
  GI50: > 100 µM (inactive)
OVCAR-4
  GI50: > 100 µM (inactive)
DMS-114
  GI50: > 100 µM (inactive)
HOP-18
  GI50: > 100 µM (inactive)
LXFL 529
  GI50: > 100 µM (inactive)
UACC-257
  GI50: > 100 µM (inactive)
MOLT-4
  GI50: > 100 µM (inactive)
COLO 205
  GI50: > 100 µM (inactive)
SNB-78
  GI50: > 100 µM (inactive)
HCT-116
  GI50: > 100 µM (inactive)
SF-268
  GI50: > 100 µM (inactive)
OVCAR-8
  GI50: > 100 µM (inactive)
SNB-19
  GI50: > 100 µM (inactive)
OVCAR-3
  GI50: > 100 µM (inactive)
NCI-H460
  GI50: > 100 µM (inactive)
M14
  GI50: > 100 µM (inactive)
ACHN
  GI50: > 100 µM (inactive)
LOX IMVI
  GI50: > 100 µM (inactive)
DLD-1
  GI50: > 100 µM (inactive)
Malme-3M
  GI50: > 100 µM (inactive)
SF-295
  GI50: > 100 µM (inactive)
SNB-75
  GI50: > 100 µM (inactive)
KM-20L2
  GI50: > 100 µM (inactive)
HCC 2998
  GI50: > 100 µM (inactive)
EKVX
  GI50: 67.3 µM (inactive)
SN12C
  GI50: > 100 µM (inactive)
KM12
  GI50: > 100 µM (inactive)
SK-MEL-2
  GI50: > 100 µM (inactive)
SW-620
  GI50: > 100 µM (inactive)
NCI-H522
  GI50: > 100 µM (inactive)
SF-539
  GI50: > 100 µM (inactive)
HL-60
  GI50: > 100 µM (inactive)
RXF 393
  GI50: > 100 µM (inactive)
IGROV-1
  GI50: > 100 µM (inactive)
RPMI-8226
  GI50: > 100 µM (inactive)
SK-OV-3
  GI50: > 100 µM (inactive)
UO-31
  GI50: > 100 µM (inactive)
CAKI-1
  GI50: > 100 µM (inactive)
HOP-62
  GI50: > 100 µM (inactive)
U-251
  GI50: > 100 µM (inactive)
SK-MEL-28
  GI50: > 100 µM (inactive)
HCT-15
  GI50: > 100 µM
SK-MEL-5
  GI50: > 100 µM (inactive)
DMS-273
  GI50: > 100 µM (inactive)
OVCAR-5
  GI50: > 100 µM (inactive)
NCI-H23
  GI50: > 100 µM (inactive)
HT-29
  GI50: > 100 µM (inactive)
K562
  GI50: > 100 µM (inactive)
A549
  GI50: > 100 µM (inactive)

## Cn1c2ccccc2c2ccc3c(c21)C(=O)C(c1ccccc1)=CC3=O
NCI-H226
  GI50: 11.7 µM (inactive)
786-0
  GI50: 17.1 µM (inactive)
CCRF-CEM
  GI50: 9.62 µM (inactive)
DMS-114
  GI50: 17.9 µM (inactive)
TK-10
  GI50: 43.8 µM (inactive)
HOP-18
  GI50: 0.0957 µM (active)
M19-MEL
  GI50: 24 µM (inactive)
LXFL 529
  GI50: 16.1 µM (inactive)
UACC-257
  GI50: 32.7 µM (inactive)
MOLT-4
  GI50: 14.8 µM (inactive)
COLO 205
  GI50: 31.1 µM (inactive)
SNB-78
  GI50: > 100 µM (inactive)
HCT-116
  GI50: 14.5 µM (inactive)
SF-268
  GI50: 36 µM (inactive)
OVCAR-8
  GI50: 14.9 µM (inactive)
SNB-19
  GI50: 42.5 µM (inactive)
HOP-92
  GI50: 15.7 µM (inactive)
OVCAR-3
  GI50: 23.7 µM (inactive)
NCI-H460
  GI50: 9.27 µM (inactive)
M14
  GI50: 39.4 µM (inactive)
ACHN
  GI50: 54.2 µM (inactive)
DLD-1
  GI50: 17.9 µM (inactive)
Malme-3M
  GI50: 21.9 µM (inactive)
SF-295
  GI50: 61.4 µM (inactive)
SNB-75
  GI50: 9.31 µM (inactive)
HCC 2998
  GI50: 24.5 µM (inactive)
EKVX
  GI50: 23.2 µM (inactive)
SN12C
  GI50: 17.3 µM (inactive)
KM12
  GI50: 32.2 µM (inactive)
SK-MEL-2
  GI50: 22 µM (inactive)
NCI-H522
  GI50: 19.2 µM (inactive)
SF-539
  GI50: 24.2 µM (inactive)
HL-60
  GI50: 14.4 µM (inactive)
IGROV-1
  GI50: 13.4 µM (inactive)
RPMI-8226
  GI50: 23.6 µM (inactive)
SK-OV-3
  GI50: 81.3 µM (inactive)
UO-31
  GI50: 31.1 µM (inactive)
CAKI-1
  GI50: 49.9 µM (inactive)
HOP-62
  GI50: 13.4 µM (inactive)
U-251
  GI50: 36.8 µM (inactive)
SK-MEL-28
  GI50: 24 µM (inactive)
HCT-15
  GI50: 7.03 µM
SK-MEL-5
  GI50: 22.8 µM (inactive)
DMS-273
  GI50: 21.5 µM (inactive)
OVCAR-5
  GI50: > 100 µM (inactive)
NCI-H23
  GI50: 22.4 µM (inactive)
HT-29
  GI50: 45.4 µM (inactive)
K562
  GI50: 4.75 µM (inactive)
A549
  GI50: 34.4 µM (inactive)

## COc1cc2c(c(OC)c1OC)-c1ccc(SC)c(=O)cc1[C@@H](NC(=O)c1ccc(F)cc1)CC2
NCI-H226
  GI50: 0.0381 µM (active)
A498
  GI50: 0.0399 µM (active)
UACC-62
  GI50: 0.0454 µM (active)
786-0
  GI50: 0.0488 µM (active)
CCRF-CEM
  GI50: < 0.01 µM (active)
OVCAR-4
  GI50: 6.59 µM (inactive)
TK-10
  GI50: 0.0515 µM (active)
M19-MEL
  GI50: 0.0409 µM (active)
LXFL 529
  GI50: 0.0356 µM (active)
UACC-257
  GI50: < 0.01 µM (active)
MOLT-4
  GI50: 0.0601 µM (active)
COLO 205
  GI50: 0.0206 µM (active)
SNB-78
  GI50: 0.055 µM (active)
HCT-116
  GI50: 0.0416 µM (active)
SF-268
  GI50: 0.0455 µM (active)
OVCAR-8
  GI50: 0.053 µM (active)
HOP-92
  GI50: 0.0281 µM (active)
OVCAR-3
  GI50: 0.0183 µM (active)
NCI-H460
  GI50: 0.0344 µM (active)
M14
  GI50: 0.0378 µM (active)
ACHN
  GI50: 0.0467 µM (active)
LOX IMVI
  GI50: 0.0501 µM (active)
DLD-1
  GI50: 0.0423 µM (active)
XF498
  GI50: 0.049 µM (active)
Malme-3M
  GI50: 0.0615 µM (active)
SF-295
  GI50: 0.0327 µM (active)
SNB-75
  GI50: 0.07 µM (active)
KM-20L2
  GI50: 0.0233 µM (active)
HCC 2998
  GI50: 0.0284 µM (active)
EKVX
  GI50: 0.0461 µM (active)
SN12C
  GI50: 0.0384 µM (active)
KM12
  GI50: 0.0217 µM (active)
SK-MEL-2
  GI50: 0.0407 µM (active)
SW-620
  GI50: 0.0306 µM (active)
NCI-H522
  GI50: < 0.01 µM (active)
SF-539
  GI50: 0.0283 µM (active)
HL-60
  GI50: < 0.01 µM (active)
IGROV-1
  GI50: 0.0594 µM (active)
RPMI-8226
  GI50: 0.0498 µM (active)
SK-OV-3
  GI50: 0.0294 µM (active)
UO-31
  GI50: < 0.01 µM (active)
HOP-62
  GI50: 0.0621 µM (active)
U-251
  GI50: 0.0428 µM (active)
SK-MEL-28
  GI50: 15.2 µM (inactive)
DMS-273
  GI50: < 0.01 µM (active)
OVCAR-5
  GI50: 48.1 µM (inactive)
NCI-H23
  GI50: 0.0417 µM (active)
HT-29
  GI50: 0.0318 µM (active)
K562
  GI50: 0.0284 µM (active)

## C=CCCCCC1CCC2CCC(CCCCC=C)N12 (centres undefined)
NCI-H226
  GI50: 18.2 µM (inactive)
UACC-62
  GI50: 15.7 µM (inactive)
786-0
  GI50: 13.7 µM (inactive)
SR
  GI50: 14.2 µM (inactive)
CCRF-CEM
  GI50: 11.6 µM (inactive)
OVCAR-4
  GI50: 13 µM (inactive)
DMS-114
  GI50: 15.7 µM (inactive)
TK-10
  GI50: 16.6 µM (inactive)
HOP-18
  GI50: 21.3 µM (inactive)
M19-MEL
  GI50: 20.4 µM (inactive)
LXFL 529
  GI50: 14 µM (inactive)
UACC-257
  GI50: 15.2 µM (inactive)
MOLT-4
  GI50: 15 µM (inactive)
COLO 205
  GI50: 16.2 µM (inactive)
HCT-116
  GI50: 14.2 µM (inactive)
SF-268
  GI50: 14.7 µM (inactive)
OVCAR-8
  GI50: 17.7 µM (inactive)
SNB-19
  GI50: 19 µM (inactive)
HOP-92
  GI50: 10.3 µM (inactive)
OVCAR-3
  GI50: 15.1 µM (inactive)
NCI-H460
  GI50: 12.4 µM (inactive)
M14
  GI50: 15.4 µM (inactive)
ACHN
  GI50: 14.6 µM (inactive)
Malme-3M
  GI50: 15.8 µM (inactive)
SF-295
  GI50: 13.4 µM (inactive)
SNB-75
  GI50: 28.1 µM (inactive)
KM-20L2
  GI50: 12.1 µM (inactive)
HCC 2998
  GI50: 16.1 µM (inactive)
EKVX
  GI50: > 10 µM (inactive)
SN12C
  GI50: 15.7 µM (inactive)
KM12
  GI50: 15.8 µM (inactive)
SK-MEL-2
  GI50: 10.7 µM (inactive)
SW-620
  GI50: 15.1 µM (inactive)
NCI-H522
  GI50: 14.2 µM (inactive)
SF-539
  GI50: 16.9 µM (inactive)
HL-60
  GI50: 14.5 µM (inactive)
RPMI-8226
  GI50: 16.1 µM (inactive)
UO-31
  GI50: 13.2 µM (inactive)
CAKI-1
  GI50: 29.1 µM (inactive)
HOP-62
  GI50: 16 µM (inactive)
U-251
  GI50: 20 µM (inactive)
SK-MEL-28
  GI50: 17.7 µM (inactive)
HCT-15
  GI50: 6.3 µM
SK-MEL-5
  GI50: 13.9 µM (inactive)
DMS-273
  GI50: 20 µM (inactive)
HT-29
  GI50: 9.38 µM (inactive)
K562
  GI50: 12.1 µM (inactive)
A549
  GI50: 16.1 µM (inactive)

— ChEMBL document CHEMBL1201862, “PubChem BioAssay data set” (2004)
